The target in one test is T1, kinase domain of cKIT (Homo sapiens, UniProt P10721).
T1 construct: The kinase domain of cKIT was assayed in 50 mM Hepes; purchased Upstate 14-559
Kind of test: Inhibition of cKIT kinase signaling in an in vitro biochemical assay (alphascreen). Conditions: tested at about 1 μM, read-out: cKit percent inhibition.

Test [1] relates to MNFS60 (murine AML cells). In words: Cell viability assay in MCSF dependent MNFS60 cells (Cell Titer Glo). The test is classed as cell-based. The following applies: Mus musculus, tested at about 1 μM, read-out: M-NFS-60 CP percent inhibition. The method, boiled down: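 EC50 values reflect MCSF-driven (10 ng/ml final) proliferation over 72 hrs at 37° C., read by CellTiter-Glo. Each condition was run in triplicate.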

Test [2] concerns the target T2, cytoplasmic domain of the human CSF-1R (Homo sapiens, UniProt P07333).
T2 construct: Recombinant protein corresponding to the cytoplasmic domain of the human CSF-1R; purchased Invitrogen Corporation, Carlsbad, Calif; PV3249
T2 sequence (P07333 539-972 limits assumed): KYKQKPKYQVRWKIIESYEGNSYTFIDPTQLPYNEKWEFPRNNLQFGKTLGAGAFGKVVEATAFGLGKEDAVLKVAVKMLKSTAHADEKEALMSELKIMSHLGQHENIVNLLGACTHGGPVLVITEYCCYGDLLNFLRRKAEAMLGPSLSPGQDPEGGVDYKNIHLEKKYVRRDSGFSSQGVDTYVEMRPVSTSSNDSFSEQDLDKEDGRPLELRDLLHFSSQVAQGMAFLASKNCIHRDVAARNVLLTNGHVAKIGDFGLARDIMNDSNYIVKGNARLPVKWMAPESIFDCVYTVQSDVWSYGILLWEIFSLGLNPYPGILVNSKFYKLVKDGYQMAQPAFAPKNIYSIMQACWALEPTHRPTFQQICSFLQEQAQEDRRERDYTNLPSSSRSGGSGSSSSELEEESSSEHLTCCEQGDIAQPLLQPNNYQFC
Kind of test: In vitro kinase assay for colony stimulating factor-1 receptor (AlphaScreen). Format: biochemical. The following applies: tested at about 1 μM, read-out: CSF-1R percent inhibition. The method, boiled down:
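Tyrosine phosphorylation of a peptide substrate by 4 nM recombinant cytoplasmic-domain enzyme is measured at 1 μM ATP in Mn2+/Mg2+-containing Hepes buffer, pH 7.5. Detection uses PT66 AlphaScreen beads after overnight incubation.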
On the technique in general: In Alpha technology, singlet oxygen from a donor bead excites a nearby acceptor bead.

In test [3] the target is T3, full-length human CSF-1R receptor (Homo sapiens, UniProt P07333).
T3 construct: transfected with the full-length human CSF-1R receptor cloned in house; expressed in transfected cells; host or cells: HEK293H (Invitrogen Cat. #11631017)
T3 sequence (P07333 20-972): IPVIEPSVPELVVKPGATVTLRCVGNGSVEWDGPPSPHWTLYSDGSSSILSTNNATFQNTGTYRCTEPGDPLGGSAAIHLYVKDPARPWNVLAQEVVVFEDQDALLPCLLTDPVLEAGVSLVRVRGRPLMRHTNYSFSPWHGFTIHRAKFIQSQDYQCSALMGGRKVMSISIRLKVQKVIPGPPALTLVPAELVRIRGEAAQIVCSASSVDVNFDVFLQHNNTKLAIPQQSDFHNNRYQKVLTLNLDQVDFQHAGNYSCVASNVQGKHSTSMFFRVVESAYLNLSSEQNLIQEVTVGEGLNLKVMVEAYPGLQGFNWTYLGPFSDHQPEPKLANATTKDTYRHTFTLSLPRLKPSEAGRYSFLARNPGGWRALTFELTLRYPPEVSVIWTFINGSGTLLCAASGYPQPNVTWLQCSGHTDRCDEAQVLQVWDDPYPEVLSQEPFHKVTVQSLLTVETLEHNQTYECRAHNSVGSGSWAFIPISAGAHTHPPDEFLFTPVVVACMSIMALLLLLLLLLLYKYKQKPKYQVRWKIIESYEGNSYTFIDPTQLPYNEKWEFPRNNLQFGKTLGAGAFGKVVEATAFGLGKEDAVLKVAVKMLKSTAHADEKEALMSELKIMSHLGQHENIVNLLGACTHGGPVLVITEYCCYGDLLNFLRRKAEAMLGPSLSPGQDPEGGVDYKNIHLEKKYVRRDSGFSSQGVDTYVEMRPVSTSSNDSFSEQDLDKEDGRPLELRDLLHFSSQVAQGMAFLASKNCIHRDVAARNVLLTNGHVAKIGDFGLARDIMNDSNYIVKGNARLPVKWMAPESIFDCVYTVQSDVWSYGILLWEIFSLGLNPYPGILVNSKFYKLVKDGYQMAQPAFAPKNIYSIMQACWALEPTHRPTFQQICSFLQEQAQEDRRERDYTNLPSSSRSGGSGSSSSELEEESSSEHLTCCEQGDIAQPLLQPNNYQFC
In words: In vitro inhibition of CSF-1R receptor tyrosine phosphorylation in transfected HEK293H cells stimulated with MCSF. The test is classed as cell-based. Conditions: HEK293-H, tested at about 1 μM, read-out: pCSF1R percent inhibition. The protocol:
The lysate was then transferred to total CSF-1R antibody coated 96-well plates that had already been blocked with 3% Blocker A from Mesoscale discovery (MSD) for 2 hours and washed afterwards. Lysates were incubated overnight at 4° C. and the plates were then washed 4× with MSD Tris Wash Buffer. […] The plates were read on the Sector 6000 instrument (MSD). Raw data was imported in Abase and EC50s calculated with XL-fit data analysis software.

A further test has as its target T4, kinase domain of PDGFRβ (Homo sapiens, UniProt P09619).
T4 construct: The kinase domain of PDGFRβ was assayed in 50 mM Hepes; purchased Invitrogen P3082
In words: Inhibition of PDGFRb kinase signaling in an in vitro biochemical assay (alphascreen). The following applies: tested at about 1 μM, read-out: PDGFRβ percent inhibition.

Broadly, the inhibition is the drop in the measured response relative to a control, in per cent.

SMILES strings stand for the structures. Like-named read-outs stand apart in the source and are kept apart here.

T1 sequence (P10721 589-937 limits assumed): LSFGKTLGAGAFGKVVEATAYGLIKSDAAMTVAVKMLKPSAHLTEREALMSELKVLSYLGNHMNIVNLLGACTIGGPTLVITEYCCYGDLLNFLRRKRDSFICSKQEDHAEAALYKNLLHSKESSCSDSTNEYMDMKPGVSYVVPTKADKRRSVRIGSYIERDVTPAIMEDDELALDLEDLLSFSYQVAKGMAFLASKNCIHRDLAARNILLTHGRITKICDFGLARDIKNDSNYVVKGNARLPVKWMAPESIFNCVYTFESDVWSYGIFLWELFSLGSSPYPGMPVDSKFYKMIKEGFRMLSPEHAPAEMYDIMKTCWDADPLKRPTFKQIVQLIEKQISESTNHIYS
T4 sequence (P09619 600-962 limits assumed): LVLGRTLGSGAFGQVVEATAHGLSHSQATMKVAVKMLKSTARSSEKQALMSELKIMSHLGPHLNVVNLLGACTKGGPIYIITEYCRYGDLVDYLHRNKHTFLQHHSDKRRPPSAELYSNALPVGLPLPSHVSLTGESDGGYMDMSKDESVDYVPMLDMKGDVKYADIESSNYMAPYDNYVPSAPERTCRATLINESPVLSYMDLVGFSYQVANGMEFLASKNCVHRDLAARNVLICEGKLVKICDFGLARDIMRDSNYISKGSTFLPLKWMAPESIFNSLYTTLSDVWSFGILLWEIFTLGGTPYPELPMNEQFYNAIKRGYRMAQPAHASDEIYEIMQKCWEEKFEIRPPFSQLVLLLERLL

Take `CNC(=O)c1cc(Oc2ccc3nc(NCc4cccc5c4OCCO5)sc3c2)ccn1` [Compound 152, 4-{2-[(2,3-Dihydro-benzo-[1,4]dioxin-5-ylmethyl)-amino]-benzothiazol-6-yloxy}-pyridine-2-carboxylic acid methylamide]: the inhibition at 1 µM on kinase domain of cKIT stood at 100%; in test [1] (MNFS60 cells), 100%; in test [2], 99%; in test [3] (HEK293H cells) it was 98%; at kinase domain of PDGFRβ, 82%.

Consider `COc1ccc(-c2cc(Oc3ccc4nc(N[C@@H](C)C5CCCCC5)sc4c3)ccn2)cn1` [Example 279, (S)-N-(1-cyclohexylethyl)-6-(6'-methoxy-2,3'-bipyridin-4-yloxy)benzo[d]thiazol-2-amine], for which the inhibition at 1 µM at kinase domain of cKIT (compounds of Table 3) was 30%; in test [1] (compounds of Table 3), 60%; in test [2] (compounds of Table 3), 100%; in test [3] (compounds of Table 3) it was 59%; on kinase domain of PDGFRβ (compounds of Table 3), 7%.

Consider `CNC(=O)c1cc(Oc2ccc3nc(N[C@H](C)C4CCCCC4)sc3c2)ccn1` [Compound 138, 4-[2-((R)-1-Cyclohexyl-ethylamino)-benzothiazol-6-yloxy]-pyridine-2-carboxylic acid methylamide], for which the inhibition at 1 µM on kinase domain of cKIT turned out to be 93%; in test [1] (MNFS60 cells), 100%; in test [2], 99%; in test [3] (HEK293H cells), 88%; at kinase domain of PDGFRβ, 93%.

Take `CC(C)[C@@H](CO)Nc1nc2ccc(Oc3ccnc(-c4cnn(C)c4)c3)cc2s1` [Example 352, (S)-3-methyl-2-(6-(2-(1-methyl-1H-pyrazol-4-yl)pyridin-4-yloxy)benzo[d]thiazol-2-ylamino)butan-1-ol]: the inhibition at 1 µM at kinase domain of cKIT is 45%; in test [1] (MCSF dependent MNFS60 cells), 100%; in test [2] it was 100%; in test [3] (HEK293H cells), 97%; at kinase domain of PDGFRβ, 74%.

In the case of `CNC(=O)c1cc(Oc2ccc3nc(NCC4CCCCC4)sc3c2)ccn1` [Compound 128, 4-[2-(Cyclohexylmethyl-amino)-benzothiazol-6-yloxy]-pyridine-2-carboxylic acid methylamide], the inhibition at 1 µM at kinase domain of cKIT is 90%; in test [1] (MNFS60 cells), 95%; in test [2], 100%; in test [3] (HEK293H cells), 95%; at kinase domain of PDGFRβ, 83%.

With `O[C@@H]1CCCC[C@H]1Nc1nc2ccc(Oc3ccnc(-n4ccnc4)c3)cc2s1` [Example 262, (1R,2R)-2-(6-(2-(1H-imidazol-1-yl)pyridin-4-yloxy)benzo[d]thiazol-2-ylamino)cyclohexanol], the inhibition at 1 µM on kinase domain of cKIT (compounds of Table 3) was determined as 20%; in test [1] (compounds of Table 3) it was 46%; in test [2] (compounds of Table 3) it was 100%; in test [3] (compounds of Table 3) it was 48%; on kinase domain of PDGFRβ (compounds of Table 3), 3%.

On to `c1ccc2c(Oc3ccc4nc(N[C@@H]5C[C@H]6CC[C@@H]5C6)sc4c3)ccnc2c1` [Example 251, N-((1R,2R,4S)-bicyclo[2.2.1]heptan-2-yl)-6-(quinolin-4-yloxy)benzo[d]thiazol-2-amine], for which the inhibition at 1 µM stood at 56% on kinase domain of cKIT (compounds of Table 3); 80% in test [1] (compounds of Table 3); 100% in test [2] (compounds of Table 3); 74% in test [3] (compounds of Table 3); 28% on kinase domain of PDGFRβ (compounds of Table 3).

In the case of `CN1CCN(c2ccc(-c3cc(Oc4ccc5nc(N[C@@H]6CCCC[C@H]6O)sc5c4)ccn3)cn2)CC1` [Cmpd 164, (1R,2R)-2-(6-(6'-(4-methylpiperazin-1-yl)-2,3'-bipyridin-4-yloxy)benzo[d]thiazol-2-ylamino)cyclohexanol], the inhibition at 1 µM on kinase domain of cKIT (compounds of Table 3) came to 79%; in test [1] (compounds of Table 3), 100%; in test [2] (compounds of Table 3), 100%; in test [3] (compounds of Table 3) it was 100%; on kinase domain of PDGFRβ (compounds of Table 3), 87%.

With `c1cc(Oc2ccc3nc(NCC4CCCCC4)sc3c2)cc(-c2cn[nH]c2)n1` [Example 341, 6-(2-(1H-pyrazol-4-yl)pyridin-4-yloxy)-N-(cyclohexylmethyl)benzo[d] thiazol-2-amine], the inhibition at 1 µM on kinase domain of cKIT was 99%; in test [1] (MCSF dependent MNFS60 cells) it was 99%; in test [2], 100%; in test [3] (HEK293H cells) it was 96%; on kinase domain of PDGFRβ it was 88%.

As to `CNC(=O)c1cc(Oc2ccc3nc(NC[C@@H](O)c4ccccc4)sc3c2)ccn1` [Compound 145], the inhibition at 1 µM at kinase domain of cKIT (compounds of Table 3) was found to be 39%; in test [1] (compounds of Table 3), 58%; in test [2] (compounds of Table 3) it was 100%; in test [3] (compounds of Table 3), 86%; at kinase domain of PDGFRβ (compounds of Table 3) it was 33%.

`Nc1ccc(-c2cc(Oc3ccc4nc(N[C@@H]5CCCC[C@H]5O)sc4c3)ccn2)cn1` [Example 261, (1R,2R)-2-(6-(6'-amino-2,3'-bipyridin-4-yloxy)benzo[d]thiazol-2-ylamino)cyclohexanol]: the inhibition at 1 µM at kinase domain of cKIT (compounds of Table 3) is 25%; in test [1] (compounds of Table 3), 100%; in test [2] (compounds of Table 3), 100%; in test [3] (compounds of Table 3) it was 98%; at kinase domain of PDGFRβ (compounds of Table 3), 30%.

Consider `CNC(=O)c1cc(Oc2ccc3nc(NC(C)c4cccc5c4OCCO5)oc3c2)ccn1` (centres unmarked) [Compound 125, 4-{2-[1-(2,3-Dihydro-benzo-[1,4]dioxin-5-yl)-ethylamino]-benzooxazol-6-yloxy}-pyridine-2-carboxylic acid methylamide], for which the inhibition at 1 µM was determined as 35% on kinase domain of cKIT; 44% in test [1] (MNFS60 cells); 100% in test [2]; 45% in test [3] (HEK293H cells); 0% at kinase domain of PDGFRβ.

`O[C@@H]1CCCC[C@H]1Nc1nc2ccc(Oc3ccnc(-c4ccco4)c3)cc2s1` [Example 371, (1R,2R)-2-(6-(2-(furan-2-yl)pyridin-4-yloxy)benzo[d]thiazol-2-ylamino)cyclohexanol]: the inhibition at 1 µM at kinase domain of cKIT amounted to 29%; in test [1] (MCSF dependent MNFS60 cells) it was 69%; in test [2], 100%; in test [3] (HEK293H cells), 79%; at kinase domain of PDGFRβ, 9%.

On to `CNC(=O)c1cc(Oc2ccc3nc(N[C@H](CO)C4CCCCC4)oc3c2)ccn1` [Compound 66, 4-[2-((S)-1-Cyclohexyl-02-hydroxy-ethylamino)-benzo-oxazol-6-yloxy]-pyridine-2-carboxylic acid methylamide], for which the inhibition at 1 µM was found to be 55% on kinase domain of cKIT; 18% in test [1] (MNFS60 cells); 100% in test [2]; 37% in test [3] (HEK293H cells); 37% on kinase domain of PDGFRβ.

For the molecule `Cc1c[nH]c(-c2cc(Oc3ccc4nc(N[C@@H](C)C5CCCCC5)sc4c3)ccn2)n1` [Example 268, (S)-N-(1-cyclohexylethyl)-6-(2-(4-methyl-1H-imidazol-2-yl)pyridin-4-yloxy)benzo[d]thiazol-2-amine], the inhibition at 1 µM worked out at 25% on kinase domain of cKIT (compounds of Table 3); 84% in test [1] (compounds of Table 3); 100% in test [2] (compounds of Table 3); 87% in test [3] (compounds of Table 3); 29% at kinase domain of PDGFRβ (compounds of Table 3).

Consider `OC[C@H](Nc1nc2ccc(Oc3ccnc4ccccc34)cc2s1)C1CCCCC1` [Example 240, (R)-2-cyclohexyl-2-(6-(quinolin-4-yloxy)benzo[d]thiazol-2-ylamino)ethanol], for which the inhibition at 1 µM was 21% on kinase domain of cKIT (compounds of Table 3); 66% in test [1] (compounds of Table 3); 100% in test [2] (compounds of Table 3); 71% in test [3] (compounds of Table 3); 16% on kinase domain of PDGFRβ (compounds of Table 3).

(Values after patent publication US8173689B2 (Novartis AG, priority 2006, dated 2012).)
